Laboratory results taken from US12539292B2, “BRM targeting compounds and associated methods of use” (Arvinas Operations, Inc., priority 2018, dated 2026).
Values belong to the compound of their own block, whether it stands above or below them.

Target: T1, BRM (Homo sapiens, UniProt P51531)
T1 construct: In-Cell Western Screen of BRM Degradation in SW1573 Cells; endogenous in cells; host or cells: SW1573
Test: In-cell Western screen of BRM degradation in SW1573 cells (Dmax and DC50)
Assay type: cell-based
Conditions: BRM degradation, SW1573 cells; for DC50: read-out: DC50; for Dmax / Dmax (%) (% degraded): tested at the top concentration of between 0.3 and 10 μM; for Dmax: read-out: Dmax (%) (% degraded)
How it was run: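 After adhering overnight, cells received compound for 18-20 hours. They were then washed in cold DPBS, fixed with 4% PFA for 20 min and permeabilized for 30 min. Blocking and fluorescent secondary staining followed before imaging.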

T1 sequence (P51531 whole entry): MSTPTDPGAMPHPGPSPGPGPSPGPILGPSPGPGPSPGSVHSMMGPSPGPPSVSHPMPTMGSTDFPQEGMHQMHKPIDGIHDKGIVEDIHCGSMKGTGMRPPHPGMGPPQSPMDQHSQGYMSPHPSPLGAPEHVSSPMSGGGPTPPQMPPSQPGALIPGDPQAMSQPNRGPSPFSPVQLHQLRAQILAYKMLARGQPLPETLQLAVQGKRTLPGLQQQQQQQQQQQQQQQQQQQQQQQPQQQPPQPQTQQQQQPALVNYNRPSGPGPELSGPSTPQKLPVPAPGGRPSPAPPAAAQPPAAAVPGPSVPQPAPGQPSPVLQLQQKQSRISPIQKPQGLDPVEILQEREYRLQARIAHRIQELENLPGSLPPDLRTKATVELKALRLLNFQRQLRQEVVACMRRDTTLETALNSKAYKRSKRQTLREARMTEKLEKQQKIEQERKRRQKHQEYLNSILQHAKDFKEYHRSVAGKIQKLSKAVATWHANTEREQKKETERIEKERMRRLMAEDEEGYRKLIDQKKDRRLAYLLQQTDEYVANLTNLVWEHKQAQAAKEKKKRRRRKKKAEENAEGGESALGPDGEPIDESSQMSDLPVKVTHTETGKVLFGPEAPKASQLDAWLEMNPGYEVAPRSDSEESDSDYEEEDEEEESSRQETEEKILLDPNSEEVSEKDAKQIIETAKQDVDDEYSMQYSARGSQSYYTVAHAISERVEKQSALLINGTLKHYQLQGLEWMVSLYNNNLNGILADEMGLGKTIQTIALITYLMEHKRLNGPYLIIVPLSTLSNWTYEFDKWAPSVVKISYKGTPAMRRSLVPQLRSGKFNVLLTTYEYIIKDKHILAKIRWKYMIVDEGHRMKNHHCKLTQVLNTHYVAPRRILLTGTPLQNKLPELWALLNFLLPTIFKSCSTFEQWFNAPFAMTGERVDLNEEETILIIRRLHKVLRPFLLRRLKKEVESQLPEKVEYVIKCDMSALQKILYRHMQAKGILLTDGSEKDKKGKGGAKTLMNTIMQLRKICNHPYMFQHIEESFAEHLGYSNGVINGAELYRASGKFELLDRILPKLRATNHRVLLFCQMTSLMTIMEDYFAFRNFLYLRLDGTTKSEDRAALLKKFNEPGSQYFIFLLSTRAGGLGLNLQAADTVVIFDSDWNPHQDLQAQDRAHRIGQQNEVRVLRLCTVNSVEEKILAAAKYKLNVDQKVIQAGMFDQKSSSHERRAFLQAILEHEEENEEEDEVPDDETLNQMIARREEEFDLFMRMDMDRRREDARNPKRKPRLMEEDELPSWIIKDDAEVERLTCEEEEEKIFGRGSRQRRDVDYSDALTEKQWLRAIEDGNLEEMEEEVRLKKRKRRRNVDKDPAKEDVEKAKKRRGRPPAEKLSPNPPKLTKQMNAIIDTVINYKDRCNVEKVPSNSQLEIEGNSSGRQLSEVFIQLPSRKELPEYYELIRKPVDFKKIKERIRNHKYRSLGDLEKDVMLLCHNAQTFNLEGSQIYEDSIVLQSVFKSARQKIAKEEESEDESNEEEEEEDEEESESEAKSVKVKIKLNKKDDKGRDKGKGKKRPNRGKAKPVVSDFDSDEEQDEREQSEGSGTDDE

Compound: Cc1ncsc1-c1ccc(CNC(=O)[C@@H]2C[C@@H](O)CN2C(=O)[C@@H](c2cc(OCC#Cc3ccc(O[C@H]4C[C@H](Oc5cc(N6C7CCC6CN(c6cc(-c8ccccc8O)nnc6N)C7)ccn5)C4)cn3)no2)C(C)C)cc1 [compound 221, (2S,4R)-1-((2R)-2-(3-((3-(5-((1r,3R)-3-((4-(3-(3-amino-6-(2-hydroxyphenyl)pyridazin-4-yl)-3,8-diazabicyclo[3.2.1]octan-8-yl)pyridin-2-yl)oxy)cyclobutoxy)pyridin-2-yl)prop-2-yn-1-yl)oxy)isoxazol-5-yl)-3-methylbutanoyl)-4-hydroxy-N-(4-(4-methylthiazol-5-yl)benzyl)pyrrolidine-2-carboxamide]
DC50: < 2.5 nM
Dmax: > 75%

Compound: Cc1ncsc1-c1ccc([C@H](C)NC(=O)[C@@H]2C[C@@H](O)CN2C(=O)[C@H](c2onc(OCCN3CCC(O[C@H]4C[C@H](Oc5cc(N6C7CCC6CN(c6cc(-c8ccccc8O)nnc6N)C7)ccn5)C4)CC3)c2Cl)C(C)C)cn1 [compound 222, (2S,4R)-1-((2S)-2-(3-(2-(4-((1r,3S)-3-((4-(3-(3-amino-6-(2-hydroxyphenyl)pyridazin-4-yl)-3,8-diazabicyclo[3.2.1]octan-8-yl)pyridin-2-yl)oxy)cyclobutoxy)piperidin-1-yl)ethoxy)-4-chloroisoxazol-5-yl)-3-methylbutanoyl)-4-hydroxy-N-((S)-1-(6-(4-methylthiazol-5-yl)pyridin-3-yl)ethyl)pyrrolidine-2-carboxamide]
DC50: > 30 nM

Compound: Cc1ncsc1-c1ccc([C@H](C)NC(=O)[C@@H]2C[C@@H](O)CN2C(=O)[C@@H](c2onc(OCCN3CCC(O[C@H]4C[C@H](Oc5cc(N6C7CCC6CN(c6cc(-c8ccccc8O)nnc6N)C7)ccn5)C4)CC3)c2Cl)C(C)C)cn1 [compound 223, (2S,4R)-1-((2R)-2-(3-(2-(4-((1r,3R)-3-((4-(3-(3-amino-6-(2-hydroxyphenyl)pyridazin-4-yl)-3,8-diazabicyclo[3.2.1]octan-8-yl)pyridin-2-yl)oxy)cyclobutoxy)piperidin-1-yl)ethoxy)-4-chloroisoxazol-5-yl)-3-methylbutanoyl)-4-hydroxy-N-((S)-1-(6-(4-methylthiazol-5-yl)pyridin-3-yl)ethyl)pyrrolidine-2-carboxamide]
DC50: 2.5 to 10 nM
Dmax: > 75%

Compound: Cc1ncsc1-c1ccc(CNC(=O)[C@@H]2C[C@@H](O)CN2C(=O)[C@H](c2cc(OCCN3CCC(O[C@H]4C[C@H](Oc5cc(N6C7CCC6CN(c6cc(-c8ccccc8O)nnc6N)C7)ccn5)C4)CC3)no2)C(C)C)c(C#N)c1 [compound 224, (2S,4R)-1-((2S)-2-(3-(2-(4-((1r,3S)-3-((4-(3-(3-amino-6-(2-hydroxyphenyl)pyridazin-4-yl)-3,8-diazabicyclo[3.2.1]octan-8-yl)pyridin-2-yl)oxy)cyclobutoxy)piperidin-1-yl)ethoxy)isoxazol-5-yl)-3-methylbutanoyl)-N-(2-cyano-4-(4-methylthiazol-5-yl)benzyl)-4-hydroxypyrrolidine-2-carboxamide]
DC50: > 30 nM

Compound: Cc1ncsc1-c1ccc(CNC(=O)[C@@H]2C[C@@H](O)CN2C(=O)[C@@H](c2cc(OCCN3CCC(O[C@H]4C[C@H](Oc5cc(N6C7CCC6CN(c6cc(-c8ccccc8O)nnc6N)C7)ccn5)C4)CC3)no2)C(C)C)c(C#N)c1 [compound 225, (2S,4R)-1-((2R)-2-(3-(2-(4-((1r,3R)-3-((4-(3-(3-amino-6-(2-hydroxyphenyl)pyridazin-4-yl)-3,8-diazabicyclo[3.2.1]octan-8-yl)pyridin-2-yl)oxy)cyclobutoxy)piperidin-1-yl)ethoxy)isoxazol-5-yl)-3-methylbutanoyl)-N-(2-cyano-4-(4-methylthiazol-5-yl)benzyl)-4-hydroxypyrrolidine-2-carboxamide]
DC50: < 2.5 nM
Dmax: > 75%

Compound: Cc1ncsc1-c1ccc([C@H](C)NC(=O)[C@@H]2C[C@@H](O)CN2C(=O)[C@H](c2cc(OCCC#Cc3ccc(OC4CC(Oc5cc(N6C7CC[C@@H]6CN(c6cc(-c8ccccc8O)nnc6N)C7)ccn5)C4)cn3)no2)C(C)C)cc1 (stereo partly drawn) [compound 226, (2S,4R)-1-((2S)-2-(3-((4-(5-((1r,3r)-3-((4-(3-(3-amino-6-(2-hydroxyphenyl)pyridazin-4-yl)-3,8-diazabicyclo[3.2.1]octan-8-yl)pyridin-2-yl)oxy)cyclobutoxy)pyridin-2-yl)but-3-yn-1-yl)oxy)isoxazol-5-yl)-3-methylbutanoyl)-4-hydroxy-N-((S)-1-(4-(4-methylthiazol-5-yl)phenyl)ethyl)pyrrolidine-2-carboxamide]
DC50: 10 to 30 nM
Dmax (%) (% degraded): A (A > 75)

Compound: Cc1ncsc1-c1ccc([C@H](C)NC(=O)[C@@H]2C[C@@H](O)CN2C(=O)[C@@H](c2cc(OCCC#Cc3ccc(OC4CC(Oc5cc(N6C7CC[C@@H]6CN(c6cc(-c8ccccc8O)nnc6N)C7)ccn5)C4)cn3)no2)C(C)C)cc1 (stereo partly drawn) [compound 227, (2S,4R)-1-((2R)-2-(3-((4-(5-((1r,3r)-3-((4-(3-(3-amino-6-(2-hydroxyphenyl)pyridazin-4-yl)-3,8-diazabicyclo[3.2.1]octan-8-yl)pyridin-2-yl)oxy)cyclobutoxy)pyridin-2-yl)but-3-yn-1-yl)oxy)isoxazol-5-yl)-3-methylbutanoyl)-4-hydroxy-N-((S)-1-(4-(4-methylthiazol-5-yl)phenyl)ethyl)pyrrolidine-2-carboxamide]
DC50: < 2.5 nM
Dmax (%) (% degraded): A (A > 75)

DC50: > 30 nM
Compound: Cc1ncsc1-c1ccc(C2(NC(=O)[C@@H]3C[C@@H](O)CN3C(=O)[C@H](c3cc(OCCN4CCN(CCOc5cc(N6C7CCC6CN(c6cc(-c8ccccc8O)nnc6N)C7)ccn5)CC4)no3)C(C)C)CN(C)C2)cc1 [compound 228, (2S,4R)-1-((2S)-2-(3-(2-(4-(2-((4-(3-(3-amino-6-(2-hydroxyphenyl)pyridazin-4-yl)-3,8-diazabicyclo[3.2.1]octan-8-yl)pyridin-2-yl)oxy)ethyl)piperazin-1-yl)ethoxy)isoxazol-5-yl)-3-methylbutanoyl)-4-hydroxy-N-(1-methyl-3-(4-(4-methylthiazol-5-yl)phenyl)azetidin-3-yl)pyrrolidine-2-carboxamide]

Compound: Cc1ncoc1-c1ccc([C@H](C)NC(=O)[C@@H]2C[C@@H](O)CN2C(=O)[C@H](c2cc(OCCN3CCC(O[C@H]4C[C@H](Oc5cc(N6C7CCC6CN(c6cc(-c8ccccc8O)nnc6N)C7)ccn5)C4)CC3)no2)C(C)C)cn1 [compound 229, (2S,4R)-1-((2S)-2-(3-(2-(4-((1r,3S)-3-((4-(3-(3-amino-6-(2-hydroxyphenyl)pyridazin-4-yl)-3,8-diazabicyclo[3.2.1]octan-8-yl)pyridin-2-yl)oxy)cyclobutoxy)piperidin-1-yl)ethoxy)isoxazol-5-yl)-3-methylbutanoyl)-4-hydroxy-N-((S)-1-(6-(4-methyloxazol-5-yl)pyridin-3-yl)ethyl)pyrrolidine-2-carboxamide]
DC50: > 30 nM

Compound: Cc1ncoc1-c1ccc([C@H](C)NC(=O)[C@@H]2C[C@@H](O)CN2C(=O)[C@@H](c2cc(OCCN3CCC(O[C@H]4C[C@H](Oc5cc(N6C7CCC6CN(c6cc(-c8ccccc8O)nnc6N)C7)ccn5)C4)CC3)no2)C(C)C)cn1 [compound 230, (2S,4R)-1-((2R)-2-(3-(2-(4-((1r,3R)-3-((4-(3-(3-amino-6-(2-hydroxyphenyl)pyridazin-4-yl)-3,8-diazabicyclo[3.2.1]octan-8-yl)pyridin-2-yl)oxy)cyclobutoxy)piperidin-1-yl)ethoxy)isoxazol-5-yl)-3-methylbutanoyl)-4-hydroxy-N-((S)-1-(6-(4-methyloxazol-5-yl)pyridin-3-yl)ethyl)pyrrolidine-2-carboxamide]
DC50: < 2.5 nM
Dmax: > 75%
